Source: patent US10517889B2, “Modulators of SMAD7 expression” (Ionis Pharmaceuticals, Inc., priority 2017, dated 2019)
Strand notation (5' to 3'): a small letter for the sugar, then the base; units joined by * are phosphorothioate-linked, units joined directly phosphodiester-linked; [ ] holds rarer units or linkages, { } end groups; capitals alone tell only the bases. e = 2'-O-(2-methoxyethyl) (MOE); [5mC] = 5-methylcytosine; d = 2'-deoxy (DNA)

Tested on: human SMAD7 mRNA
Test: Antisense inhibition of human SMAD7 mRNA expression in Hep3B cells by 5-10-5 MOE gapmers, single concentration, electroporation, RT-PCR (Example 1, Study 1 and 2)
Format: cell-based
Settings: Study 2, electroporation with 15,000 nM antisense oligonucleotide, 5-10-5 MOE gapmers targeting SEQ ID NO: 1 and 2
Procedure: Antisense oligonucleotides were designed to target human SMAD7 mRNA and were tested for their effects on SMAD7 mRNA expression in vitro. Cultured Hep3B cells at a density of 20,000 cells per well were transfected using electroporation with antisense oligonucleotide ION 483663 (a 5-10-5 MOE gapmer), the sequence of which overlaps with ION 28453 (a 4-10-4 MOE gapmer) was included in these assays for comparison. ION 28453 has been previously disclosed in U.S. Pat. No. 6,159,697). After a treatment period of approximately 24 hours, RNA was isolated from the cells and SMAD7 mRNA levels were measured by quantitative real-time PCR. Primer probe set RTS5062 (forward sequence […], designated herein as SEQ ID NO: 11; reverse sequence […], designated herein as SEQ ID NO: 12; probe sequence […], designated herein as SEQ ID NO: 13) was used to measure human SMAD7 mRNA levels. SMAD7 mRNA levels were adjusted according to total RNA content, as measured by RIBOGREEN®. Results are presented as percent inhibition of SMAD7 mRNA expression, relative to untreated control cells.
The newly designed chimeric antisense oligonucleotides in the Tables below were designed as 5-10-5 MOE gapmers. The gapmers are 20 nucleosides in length, wherein the central gap segment comprises of ten 2′-deoxynucleosides and is flanked by wing segments on the 5′ direction and the 3′ direction comprising five nucleosides each. Each nucleoside in the 5′ wing segment and each nucleoside in the 3′ wing segment has a 2′-MOE modification. The internucleoside linkages throughout each gapmer are phosphorothioate (P═S) linkages. All cytosine residues throughout each gapmer are 5-methylcytosines.
“Start site” indicates the 5′-most nucleoside to which the gapmer is targeted in the human gene sequence. “Stop site” indicates the 3′-most nucleoside to which the gapmer is targeted human gene sequence.
Cultured Hep3B cells at a density of 20,000 cells per well were transfected using electroporation with 5,000 nM antisense oligonucleotide.
Cultured Hep3B cells at a density of 20,000 cells per well were transfected using electroporation with 15,000 nM antisense oligonucleotide. The antisense oligonucleotides were tested in a series of experiments that had similar culture conditions as described below.
Some of the oligonucleotides presented were complementary to SMAD7 mRNA sequences RefSeqNo. NM_001190821.1 (designated herein as SEQ ID NO: 3) or RefSeqNo. NM_001190822.1 (designated herein as SEQ ID NO: 4), and are presented in a separate table shown below.

Going from “771420 (eG*e[5mC]*e[5mC]*e[5mC]*eG*dG*dG*d[5mC]*d[5mC]*dG*d[5mC]*d[5mC]*dG*d[5mC]*d[5mC]*eA*e[5mC]*e[5mC]*eG*eG; antisense) [compound 771420]” to “771918 (antisense eA*eA*eG*eG*e[5mC]*d[5mC]*dA*d[5mC]*dA*dT*dT*dT*dT*dA*dG*eG*eT*eT*eA*eA) [compound 771918]”, the “% Inhibition” value falls from 54% to 12%.

First: 771756 (antisense e[5mC]*e[5mC]*eA*eG*eG*d[5mC]*dA*dA*d[5mC]*d[5mC]*d[5mC]*d[5mC]*dA*dG*dA*e[5mC]*e[5mC]*eT*eG*e[5mC]) [compound 771756]
Second: 771346 (antisense e[5mC]*eG*eT*eG*eA*dT*dT*d[5mC]*dT*d[5mC]*d[5mC]*dG*dT*dA*dT*eT*eT*eA*e[5mC]*eT) [compound 771346]
The “% Inhibition” value of the first is lower: 11% for the first, 22% for the second.

Going from “771908 (antisense e[5mC]*eA*eA*eA*e[5mC]*dA*dT*d[5mC]*dA*d[5mC]*d[5mC]*dA*d[5mC]*dG*d[5mC]*e[5mC]*eT*e[5mC]*eG*e[5mC]) [compound 771908]” to “771780 (antisense eA*e[5mC]*eA*eA*eA*d[5mC]*d[5mC]*dT*dT*d[5mC]*d[5mC]*dG*dA*dA*dA*eG*eG*eA*e[5mC]*e[5mC]) [compound 771780]”, the “% Inhibition” value falls from 26% to 20%.

Compared with “771927 (antisense eG*e[5mC]*e[5mC]*e[5mC]*eA*d[5mC]*dA*dG*d[5mC]*d[5mC]*d[5mC]*dA*d[5mC]*dA*d[5mC]*eG*eA*eG*eT*e[5mC]) [compound 771927]”, “771814 (antisense eT*e[5mC]*e[5mC]*e[5mC]*eT*dT*dT*dG*d[5mC]*dT*dG*dG*d[5mC]*d[5mC]*d[5mC]*eA*eG*eT*eT*e[5mC]) [compound 771814]” is higher in “% Inhibition” value: 0% for the first, 39% for the second.

First: 483665 (antisense eG*e[5mC]*eG*eA*eA*d[5mC]*dA*dT*dG*dA*d[5mC]*d[5mC]*dT*d[5mC]*d[5mC]*eG*e[5mC]*eA*e[5mC]*eA) [compound 483665]
Second: 771884 (antisense e[5mC]*eT*eG*e[5mC]*e[5mC]*dA*d[5mC]*d[5mC]*d[5mC]*dT*dG*dA*dG*dA*dG*eT*eG*eT*eA*eG) [compound 771884]
The “% Inhibition” value of the first is higher: 55% for the first, 3% for the second.

First: 771846 (antisense e[5mC]*eA*eT*eA*eT*dT*dT*dG*d[5mC]*dT*d[5mC]*d[5mC]*dA*dT*dA*eA*eA*e[5mC]*eA*eA) [compound 771846]
Second: 771903 (antisense eT*eG*e[5mC]*e[5mC]*eA*dA*d[5mC]*d[5mC]*d[5mC]*d[5mC]*dA*dG*dA*dG*dG*eT*eG*eA*eG*e[5mC]) [compound 771903]
The “% Inhibition” value of the first is lower: 5% for the first, 20% for the second.

First: 771678 (antisense eT*eT*eA*eT*eT*dT*dT*dT*d[5mC]*dT*dT*dG*dT*dT*dT*eA*eT*eA*e[5mC]*eA) [compound 771678]
Second: 771575 (antisense eA*e[5mC]*e[5mC]*eG*e[5mC]*dT*dT*dG*dG*dG*dA*d[5mC]*dT*dG*d[5mC]*eA*eA*eA*e[5mC]*e[5mC]) [compound 771575]
The “% inhibition of SMAD7 mRNA expression” value of the first is lower: 0% for the first, 47% for the second.

Compared with “771548 (antisense eG*eG*eT*eG*eT*d[5mC]*d[5mC]*dT*dG*d[5mC]*d[5mC]*dG*dA*dT*d[5mC]*eA*eT*eA*e[5mC]*e[5mC]) [compound 771548]”, “771607 (antisense eG*eG*eT*eG*eA*dG*d[5mC]*dA*dA*dT*dA*d[5mC]*dT*dG*dT*eG*eA*eG*eG*eG) [compound 771607]” is higher in “% inhibition of SMAD7 mRNA expression” value: 19% for the first, 34% for the second.

Same assay, conditions: electroporation with 15,000 nM antisense oligonucleotide (Study 2), 5-10-5 MOE gapmers targeting SEQ ID NO: 1 and 2

Going from “771864 (antisense eA*eG*eA*e[5mC]*eA*dA*dA*dG*dA*dT*d[5mC]*dA*d[5mC]*dA*dG*eA*eT*e[5mC]*eA*e[5mC]) [compound 771864]” to “771497 (antisense eG*eA*eA*eG*eA*dT*dG*dA*d[5mC]*d[5mC]*dT*d[5mC]*dT*dA*dG*e[5mC]*e[5mC]*eA*eG*e[5mC]) [compound 771497]”, the “% Inhibition of SMAD7 mRNA” value falls from 27% to 25%.

Going from “771896 (antisense eG*eG*eG*e[5mC]*e[5mC]*d[5mC]*d[5mC]*d[5mC]*dT*dT*d[5mC]*dT*dG*d[5mC]*d[5mC]*eT*eT*e[5mC]*eA*eT) [compound 771896]” to “771912 (antisense eA*eT*eA*eT*eT*d[5mC]*d[5mC]*dT*d[5mC]*dT*dG*d[5mC]*d[5mC]*dA*dA*eA*eG*eT*e[5mC]*e[5mC]) [compound 771912]”, the “% Inhibition of SMAD7 mRNA” value rises from 17% to 44%.

With “771625 (antisense eG*e[5mC]*eT*eT*eA*dA*d[5mC]*dA*d[5mC]*dA*d[5mC]*dA*dG*dG*dA*eT*eG*eG*eG*eA) [compound 771625]” the “% inhibition of SMAD7 mRNA expression” value was 48%.

Same assay, conditions: electroporation, 5,000 nM, approximately 24 hours, relative to untreated control cells, gapmers targeting SEQ ID NO: 1 and 2

Going from “771420 (eG*e[5mC]*e[5mC]*e[5mC]*eG*dG*dG*d[5mC]*d[5mC]*dG*d[5mC]*d[5mC]*dG*d[5mC]*d[5mC]*eA*e[5mC]*e[5mC]*eG*eG; antisense) [compound 771420]” to “483665 (antisense eG*e[5mC]*eG*eA*eA*d[5mC]*dA*dT*dG*dA*d[5mC]*d[5mC]*dT*d[5mC]*d[5mC]*eG*e[5mC]*eA*e[5mC]*eA) [compound 483665]”, the “% inhibition of SMAD7 mRNA expression” value rises from 1% to 10%.

Same assay, conditions: electroporation, 15,000 nM antisense oligonucleotide (Study 2), 5-10-5 MOE gapmers targeting SEQ ID NO: 1 and 2

First: 771864 (antisense eA*eG*eA*e[5mC]*eA*dA*dA*dG*dA*dT*d[5mC]*dA*d[5mC]*dA*dG*eA*eT*e[5mC]*eA*e[5mC]) [compound 771864]
Second: 771817 (antisense eG*eG*eA*eA*eT*dT*dA*dT*dG*dA*d[5mC]*dA*d[5mC]*dA*dG*eT*eA*eA*e[5mC]*eA) [compound 771817]
The “% inhibition of SMAD7 mRNA expression” value of the first is lower: 0% for the first, 19% for the second.

“771497 (antisense eG*eA*eA*eG*eA*dT*dG*dA*d[5mC]*d[5mC]*dT*d[5mC]*dT*dA*dG*e[5mC]*e[5mC]*eA*eG*e[5mC]) [compound 771497]” and “771896 (antisense eG*eG*eG*e[5mC]*e[5mC]*d[5mC]*d[5mC]*d[5mC]*dT*dT*d[5mC]*dT*dG*d[5mC]*d[5mC]*eT*eT*e[5mC]*eA*eT) [compound 771896]” are the same in “% inhibition of SMAD7 mRNA expression” value: 0% for the first, 0% for the second.

Compared with “771537 (antisense e[5mC]*eA*eA*eA*eG*dA*dG*d[5mC]*dG*dA*dA*dA*d[5mC]*dA*dA*eA*eA*e[5mC]*eA*eG) [compound 771537]”, “771897 (antisense e[5mC]*eT*e[5mC]*eT*e[5mC]*dA*dG*dG*dG*dT*d[5mC]*dT*d[5mC]*dA*dG*eT*eT*eT*eG*eA) [compound 771897]” is higher in “% inhibition of SMAD7 mRNA expression” value: 16% for the first, 44% for the second.

Going from “771912 (antisense eA*eT*eA*eT*eT*d[5mC]*d[5mC]*dT*d[5mC]*dT*dG*d[5mC]*d[5mC]*dA*dA*eA*eG*eT*e[5mC]*e[5mC]) [compound 771912]” to “771890 (antisense eA*eG*eT*e[5mC]*eT*dG*dA*dA*dG*d[5mC]*d[5mC]*d[5mC]*d[5mC]*d[5mC]*dA*eA*e[5mC]*e[5mC]*eT*eG) [compound 771890]”, the “% inhibition of SMAD7 mRNA expression” value falls from 19% to 14%.

Compared with “771381 (antisense eA*eA*eA*eA*e[5mC]*dA*d[5mC]*d[5mC]*dA*dA*dG*dA*dT*d[5mC]*d[5mC]*eA*eT*e[5mC]*eT*eT) [compound 771381]”, “771562 (antisense eA*e[5mC]*eA*e[5mC]*eA*d[5mC]*dA*d[5mC]*dT*d[5mC]*d[5mC]*dT*dG*dA*d[5mC]*eA*eA*eG*eT*eG) [compound 771562]” is higher in “% inhibition of SMAD7 mRNA expression” value: 0% for the first, 30% for the second.

In the case of “771364 (antisense eT*eA*eA*eT*eG*dG*dT*d[5mC]*dT*dG*d[5mC]*dT*d[5mC]*dA*dG*eG*e[5mC]*eT*eT*e[5mC]) [compound 771364]”, the “% inhibition of SMAD7 mRNA expression” value is reported as 23%.

Same assay, conditions: electroporation, 15,000 nM, approximately 24 hours, gapmers targeting SEQ ID NO: 3 and 4

With “771343 (antisense eG*eA*e[5mC]*eA*eG*dT*d[5mC]*dA*dG*dT*dT*dG*dG*dT*dT*eT*eG*eA*eG*eA) [compound 771343]” the “% inhibition of SMAD7 mRNA expression” value was 0%.

Same assay, conditions: electroporation, 15,000 nM, approximately 24 hours, relative to untreated control cells, gapmers targeting SEQ ID NO: 1 and 2

Compared with “771837 (antisense eA*eG*eT*eG*eT*dT*dG*dA*dG*dG*dA*d[5mC]*dT*d[5mC]*d[5mC]*e[5mC]*e[5mC]*eA*eG*e[5mC]) [compound 771837]”, “771430 (e[5mC]*eG*e[5mC]*e[5mC]*e[5mC]*dG*d[5mC]*dG*dG*d[5mC]*dT*dG*dG*d[5mC]*dG*eG*eG*eT*eG*eG; antisense) [compound 771430]” is lower in “% inhibition of SMAD7 mRNA expression” value: 48% for the first, 40% for the second.

Compared with “771901 (antisense eA*eA*eA*eA*eT*dG*d[5mC]*d[5mC]*d[5mC]*dA*d[5mC]*d[5mC]*dA*dG*dT*e[5mC]*eT*eT*e[5mC]*e[5mC]) [compound 771901]”, “771877 (antisense eT*eG*e[5mC]*eA*eG*dG*dA*dT*d[5mC]*d[5mC]*dG*dA*dT*dG*dG*eA*eA*eA*eA*eG) [compound 771877]” is lower in “% inhibition of SMAD7 mRNA expression” value: 41% for the first, 24% for the second.
